Consider three compounds from PMC12073785, “Design, Synthesis and Biological Evaluation of 3-Hydrazonoindolin-2-one Derivatives as Novel HIV-1 RNase H Inhibitors” (Molecules, 2025).

One series concerns HIV-1 (strain IIIB). Put plainly: Anti-HIV-1 (strain IIIB) activity in MT-4 cells, MTT assay. Format: cell-based. As to conditions: for EC50: protection of MT-4 cells against HIV-induced cytopathogenicity by 50%. Here is the method: (§1) The anti-HIV-1 (strain IIIB) activity evaluation in MT-4 cells was conducted using an optimized MTT assay. The cell lines were obtained from the laboratory (Prof. Erik De Clercq, Rega Institute for Medical Research, KU Leuven, Herestraat 49, Leuven, Belgium). Compounds were serially diluted (5-fold increments, starting from 10× concentration) and dispensed into 96-well plates (25 µL/well) via an automated Biomek 3000 workstation (Beckman Instruments, Fullerton, CA, USA). Parallel experimental groups included virus-infected (50 µL HIV inoculum, 100–300 TCID50) and mock-infected controls (50 µL culture medium). MT-4 cells were centrifuged (220× g, 5 min), resuspended to 6 × 10⁵ cells/mL, and seeded (50 µL/well). After a 5-day incubation, cell viability was quantified by measuring mitochondrial dehydrogenase-mediated MTT-to-formazan conversion using dual-wavelength spectrophotometry (540 nm primary, 690 nm reference). The 50% cytotoxic concentration (CC50) was calculated from triplicate median absorbance values, representing the compound concentration reducing mock-infected cell viability by 50%.
A general note: Formazan colour is commonly taken as a measure of viable cells.

Series [1] is described as follows: Cytotoxicity in mock-infected MT-4 cells, MTT assay. Format: cell-based. As to conditions: human, mock-infected MT-4 cells; reduction of normal uninfected MT-4 cell viability by 50%. As for the experimental part: as §1
The target in series [2] is T1, HIV-1 RT-associated RNase H (Human immunodeficiency virus type 1 group M subtype B, UniProt P04585).
T1 construct: HIV-1 group M subtype B heterodimeric reverse transcriptase (RT) was expressed and purified; made in house; host or cells: Escherichia coli strain M15, p6HRT-Prot expression vector
Put plainly: HIV-1 RT-associated RNase H inhibition (fluorescent RNA/DNA hybrid). In kind it is biochemical. As for the experimental part:
The tested compounds were initially dissolved in dimethyl sulfoxide (DMSO) at a concentration of 50 mM and subsequently serially diluted (ratio 1:3). The compounds were tested as previously described.
Briefly, a reaction mixture containing 50 mM Tris-HCl buffer pH 7.8, 6 mM MgCl2, 1 mM dithiothreitol (DTT), 80 mM KCl, 0.25 μM hybrid RNA/DNA. 25 μM of RNA/DNA hybrid 5′-GAUCUGAGCCUGGAGCU-Fluorescin-3′ (HPLC, dry, QC: Mass Check), 5′-Dabcyl-AGCTCCCAGGCTCAGATC-3′ (HPLC, dry, QC: Mass Check), and increasing concentrations of inhibitors was diluted in DMSO. The activity of the RNase H function associated with HIV-1 RT was quantified by measuring the linear portion of the dose–response curve. The reaction mixture was incubated at 37 °C for 10 min with a Victor Nivo 5 multilabel plate reader (model 1420-051, PerkinElmer, Waltham, MA, USA), and fluorescence signals were recorded at excitation/emission wavelengths of 490/528 nm. Based on the obtained fluorescence data, the inhibitory concentration 50 (IC50) of the target compounds was calculated by interpolation on a dose–response curve. Results are reported as average and standard deviation of at least two independent replicates in triplicate.

A further series relates to HIV-1 RT R448A. The series can be described thus: RNase H inhibition with HIV-1 RT R448A mutant versus RT wt. In kind it is biochemical. The note with it: HIV-1 RT R448A versus RT wt. An excerpt:
Furthermore, to validate the docking binding prediction of the compounds in the active site of the RT, and the interaction with amino acid residue R448, which was predicted to stabilize the binding of the compounds through a hydrogen bond, we evaluated the activity of compounds 6t and 11a in parallel against the RT wt enzyme and the HIV-1 RT R448A mutant (Figure 6). […] The results confirmed the importance of residue R448 in the binding of inhibitors and validated the predicted binding site to the enzyme; indeed, the less pronounced effect of R448A mutation on 11a inhibitory activity might be explained with the additional hydrogen bound predicted to form between 11a and amino acid Q475 (Figure 6).

For series [3], the target named is T1, HIV-1 RT-associated RNase H. Put plainly: Kinetic analysis of RNase H inhibition, competition with RNA/DNA substrate. Format: biochemical. The text has this:
Based on the docking binding predictions, compound 6t and compound 11a were chosen for further characterization. To study the interaction between the chemical compounds and the enzyme in complex with the substrate, we evaluated the competition of compounds 6a and 11a with the RNA substrate (Figure 5). […] Given the results obtained, it is hypothesized that the binding between the inhibitor and the RT protein may modulate the interaction between the enzyme and the RNA substrate, resulting in an increased apparent KM and decreased apparent Vmax when increasing the concentration of the inhibitor.
Kinetic analysis of the DNA-polymerase independent RNase H activity was performed as already reported. Briefly, a reaction mixture containing 50 mM Tris-HCl buffer pH 7.8, 6 mM MgCl2, 1 mM DTT, 80 mM KCl, and increasing concentrations of hybrid RNA/DNA 5′-GAUCUGAGCCUGGGAGCU-Fluorescin-3′/5′-Dabcyl-AGCTCCCAGGCTCAGATC-3′ was incubated at 37 °C for 10 min with a Victor Nivo 5 multilabel plate reader (model 1420-051, PerkinElmer, Waltham, MA, USA), and fluorescence signals were recorded at excitation/emission wavelengths of 490/528 nm. Results were represented according to Michaelis Menten and Lineaweaver–Burke plots.

For a further series, the system named is MT-4 cells. Put plainly: Cytotoxicity in mock-infected MT-4 cells, MTT assay. Format: cell-based. Here is the method:
as §1

SMILES strings stand for the structures. Some results are limits rather than exact numbers.

A word on the EC50: it is the concentration giving half of the maximal effect. Read a high EC50 as a need for much substance. As usually defined, the CC50 is the concentration that lowers cell viability or growth by half. The low end stands for greater toxicity to the cells, the high end for lower toxicity to the cells. In general, Ki refers to the dissociation constant of the complex between target and ligand, obtained from inhibition or displacement. The low end stands for a stronger hold on the target, the high end for a looser hold on the target. Compound `O=C1Nc2cc(Cl)c(Cl)cc2C1=NNc1c[nH]c(=O)[nH]c1=O` [Compound 11a, 5-(2-(5,6-Dichloro-2-oxoindolin-3-ylidene)hydrazineyl)pyrimidine-2,4(1H,3H)-dione] gave an EC50 in the series with HIV-1 (strain IIIB) (Human immunodeficiency virus 1, IIIB, MT4) of 39000 nM. For the same compound, the “SI, selectivity index” value in the series on HIV-1 (strain IIIB) (ratio CC50/EC50, MT-4 cells) worked out at 10. The compound further gave a half-maximal cytotoxic concentration (CC50) at 5 days in series [1] of 402 µM. In addition, in series [2] (HIV-1 RT wt, average of three independent determinations, read-out: IC50, concentration required to inhibit 50% of in vitro RNase H activity), the IC50 came out at 1900 ± 10 nM. The “Fold increase in RNase H inhibitory potency compared to compound 6a” value in series [2] (IC50 ratio versus 6a) is reported as 40 fold. For the same compound, the “Fold increase in RNase H inhibitory potency compared to compound 6t” value in series [2] (IC50 ratio versus 6t) came to 4 fold. Moreover, in the series on HIV-1 RT R448A, the “Shift of the inhibition curve (loss of potency)” value is recorded as “two-fold”. In addition, the Mode of inhibition result in series [3] (Michaelis Menten and Lineweaver-Burk plots) is recorded as “mixed model inhibitor”. For the same compound, the Ki in series [3] (competition with RNA substrate) came to 550 nM. Besides, the “Vmax (apparent)” value was found to be 105.8 in series [3] (inhibitor 1 μM), 98.24 in series [3] (inhibitor 2 μM) and 41.29 in series [3] (inhibitor 4 μM).

In turn, `O=C1Nc2ccc(Cl)cc2[C@@](C#CC2CC2)(C(F)(F)F)O1` [EFV, reference compound] displayed an EC50 in the series on HIV-1 (strain IIIB) of 3 nM. Also, in the series on MT-4 cells, the CC50 is more than 4.59 µM.

In the series on HIV-1 (strain IIIB), `Cc1ccnc2c1NC(=O)c1cccnc1N2C1CC1` [NVP, reference compound] displayed an EC50 of 190 nM. This compound registered a CC50 in the series with MT-4 cells of more than 15 µM.
